Experimental data: patent US8796324B2, “Substituted 2-acetamido-5-aryl-1,2,4-triazolones and use thereof” (Bayer Intellectual Property GmbH, priority 2009, dated 2014)

Assays:
human V1a receptor = biological target: T1, human V1a receptor (Homo sapiens, UniProt P37288); assay: Cellular in vitro assay for determining the vasopressin receptor activity (aequorin luminescence); assay type: cell-based; details: CHO cell line transfected with the human V1a receptor; agonist [Arg8]-vasopressin; read-out: IC50 hV1a
T1 construct: expressed in transfected cells; host or cells: CHO K1 (constitutively expressing modified aequorin)
Excerpt: (§1) B-1. Cellular In Vitro Assay for Determining the Vasopressin Receptor Activity
(§2) The identification of agonists and antagonists of the V1a and V2 vasopressin receptors from humans and rats and also the quantification of the activity of the substances described here took place using recombinant cell lines. These cells derive originally from a hamster ovary epithelial cell (Chinese Hamster Ovary, CHO K1, ATCC: American Type Culture Collection, Manassas, Va. 20108, USA). The test cell lines constitutively express a modified form of the calcium-sensitive photoprotein aequorin, which, after reconstitution with the cofactor coelenterazine, emits light when there are increases in the free calcium concentration (Rizzuto R., Simpson A. W., Brini M., Pozzan T.; Nature 358 (1992) 325-327). In addition, the cells are stably transfected with the human or rat V1a or V2 receptors. In the case of the Gs-coupling V2 receptors, the cells are stably transfected with a further gene, which codes for the promiscuous Gα16 protein (Amatruda T. T., Steele D. A., Slepak V. Z., Simon M. I., Proc. Nat. Acad. Sci. USA 88 (1991), 5587-5591), either independently or as a fusion gene. The resulting vasopressin receptor test cells react to stimulation of the recombinantly expressed vasopressin receptors by intracellular release of calcium ions, which can be quantified by the resulting aequorin luminescence using a suitable luminometer (Milligan G., Marshall F., Rees S., Trends in Pharmaco. Sci. 17 (1996) 235-237).
(§3) On the day before the assay, the cells are plated out in culture medium (DMEM, 10% FCS, 2 mM glutamine, 10 mM HEPES) in 384-well microtiter plates and kept in a cell incubator (96% humidity, 5% v/v carbon dioxide, 37° C.). On the day of the assay, the culture medium is replaced by a Tyrode solution (140 mM sodium chloride, 5 mM potassium chloride, 1 mM magnesium chloride, 2 mM calcium chloride, 20 mM glucose, 20 mM HEPES), which additionally contains the cofactor coelenterazine (50 μM), and the microtiter plate is then incubated for a further 3-4 hours. The test substances in various concentrations are placed for 10 to 20 minutes in the wells of the microtiter plate before the agonist [Arg8]-vasopressin is added, and the resulting light signal is measured immediately in the luminometer. The IC50 values are calculated using the GraphPad PRISM computer program (Version 3.02).
(§4) The table below lists representative IC50 values for the compounds of the invention on the cell line transfected with the human V1a or V2 receptor: […]

human V2 receptor = biological target: T2, human V2 receptor (Homo sapiens, UniProt P30518); assay: as above; assay type: cell-based; details: CHO cell line transfected with the human V2 receptor (and Gα16); agonist [Arg8]-vasopressin; read-out: IC50 hV2
T2 construct: expressed in transfected cells; host or cells: CHO K1 (constitutively expressing modified aequorin; co-transfected with promiscuous G-alpha-16)
Excerpt: as §1, §2, §3, §4

T2 sequence (P30518 whole entry): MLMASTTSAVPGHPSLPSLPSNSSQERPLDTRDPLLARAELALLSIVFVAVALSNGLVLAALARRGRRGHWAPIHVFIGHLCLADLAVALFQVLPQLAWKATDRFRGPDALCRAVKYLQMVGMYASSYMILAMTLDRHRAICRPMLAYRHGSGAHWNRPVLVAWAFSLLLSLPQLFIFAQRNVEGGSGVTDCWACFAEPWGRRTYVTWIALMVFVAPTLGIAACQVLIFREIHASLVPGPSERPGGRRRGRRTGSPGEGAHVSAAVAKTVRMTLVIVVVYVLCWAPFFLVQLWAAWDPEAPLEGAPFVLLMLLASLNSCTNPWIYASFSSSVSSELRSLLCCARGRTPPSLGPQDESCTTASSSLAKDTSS
T1 sequence (P37288 whole entry): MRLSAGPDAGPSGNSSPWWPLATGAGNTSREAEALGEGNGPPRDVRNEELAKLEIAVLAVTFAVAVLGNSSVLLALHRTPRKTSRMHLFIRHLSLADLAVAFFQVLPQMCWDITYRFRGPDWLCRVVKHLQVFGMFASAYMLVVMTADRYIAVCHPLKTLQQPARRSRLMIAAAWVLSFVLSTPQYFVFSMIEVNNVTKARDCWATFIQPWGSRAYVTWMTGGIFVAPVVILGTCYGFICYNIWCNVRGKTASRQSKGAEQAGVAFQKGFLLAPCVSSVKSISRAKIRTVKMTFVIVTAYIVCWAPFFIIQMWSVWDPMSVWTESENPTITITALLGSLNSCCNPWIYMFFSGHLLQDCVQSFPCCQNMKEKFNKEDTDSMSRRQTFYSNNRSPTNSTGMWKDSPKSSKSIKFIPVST

Row | Compound | IC50 (human V1a receptor) [nM] | IC50 (human V2 receptor) [nM]
1 | O=C(Cn1nc(-c2ccc(Cl)cc2)n(C[C@H](O)C(F)(F)F)c1=O)NC(C[N+](=O)[O-])c1cccc(C(F)(F)F)c1 (single isomer, unassigned; diastereomer i) [Example 2] | 7.6 | 2.6
2 | CS(=O)(=O)NCC(NC(=O)Cn1nc(-c2ccc(Cl)cc2)n(C[C@H](O)C(F)(F)F)c1=O)c1cccc(C(F)(F)F)c1 (single isomer, unassigned; diastereomer ii) [Example 24] | 4.5 | 1.3
3 | CCS(=O)(=O)NCC(NC(=O)Cn1nc(-c2ccc(Cl)cc2)n(C[C@H](O)C(F)(F)F)c1=O)c1cccc(Cl)c1Cl (single isomer, unassigned; diastereomer ii) [Example 34] | 3 | 1.5
4 | C[C@@](CO)(NC(=O)Cn1nc(-c2ccc(Cl)cc2)n(C[C@H](O)C(F)(F)F)c1=O)c1cccc(C(F)(F)F)c1 [Example 44, 2-{3-(4-Chlorophenyl)-5-oxo-4-[(2S)-3,3,3-trifluoro-2-hydroxypropyl]-4,5-dihydro-1H-1,2,4-triazol-1-yl}-N-{(2R)-1-hydroxy-2-[3-(trifluoromethyl)phenyl]propan-2-yl}acetamide] | 44 | 1.7
5 | Cc1cccc([C@H](CO)NC(=O)Cn2nc(-c3ccc(Cl)cc3)n(C[C@H](O)C(F)(F)F)c2=O)c1C [Example 74, 2-{3-(4-Chlorophenyl)-5-oxo-4-[(2S)-3,3,3-trifluoro-2-hydroxypropyl]-4,5-dihydro-1H-1,2,4-triazol-1-yl}-N-[(1R)-1-(2,3-dimethylphenyl)-2-hydroxyethyl]acetamide] | 21.6 | 2.4
6 | N#Cc1cccc([C@H](CO)NC(=O)Cn2nc(-c3ccc(Cl)cc3)n(C[C@H](O)C(F)(F)F)c2=O)c1 [Example 75, 2-{3-(4-Chlorophenyl)-5-oxo-4-[(2S)-3,3,3-trifluoro-2-hydroxypropyl]-4,5-dihydro-1H-1,2,4-triazol-1-yl}-N-[(1R)-1-(3-cyanophenyl)-2-hydroxyethyl]acetamide] | 513 | 59.2
7 | O=C(Cn1nc(-c2ccc(Cl)cc2)n(C[C@H](O)C(F)(F)F)c1=O)NC(c1ccccc1)C(O)C(F)(F)F (stereo partly drawn) [Example 94, 2-{3-(4-Chlorophenyl)-5-oxo-4-[(2S)-3,3,3-trifluoro-2-hydroxypropyl]-4,5-dihydro-1H-1,2,4-triazol-1-yl}-N-(3,3,3-trifluoro-2-hydroxy-1-phenylpropyl)acetamide] | 251 | 72.3
8 | O=C(Cn1nc(-c2ccc(Cl)cc2)n(C[C@H](O)C(F)(F)F)c1=O)NC(CO)c1cccc(F)c1F (stereo partly drawn) [Example 95, 2-{3-(4-Chlorophenyl)-5-oxo-4-[(2S)-3,3,3-trifluoro-2-hydroxypropyl]-4,5-dihydro-1H-1,2,4-triazol-1-yl}-N-[1-(2,3-difluorophenyl)-2-hydroxyethyl]acetamide] | 57.3 | 19.2
9 | O=C(Cn1nc(-c2ccc(Cl)cc2)n(C[C@H](O)C(F)(F)F)c1=O)NC(CO)c1cccc(C(F)F)c1 (stereo partly drawn) [Example 157, 2-{3-(4-Chlorophenyl)-5-oxo-4-[(2S)-3,3,3-trifluoro-2-hydroxypropyl]-4,5-dihydro-1H-1,2,4-triazol-1-yl}-N-{1-[3-(difluoromethyl)phenyl]-2-hydroxyethyl}acetamide] | 12.4 | 5.1
10 | NS(=O)(=O)OCC(NC(=O)Cn1nc(-c2ccc(Cl)cc2)n(C[C@H](O)C(F)(F)F)c1=O)c1cccc(C(F)(F)F)c1 (stereo partly drawn) [Example 159, 2-[({3-(4-Chlorophenyl)-5-oxo-4-[(2S)-3,3,3-trifluoro-2-hydroxypropyl]-4,5-dihydro-1H-1,2,4-triazol-1-yl}acetyl)amino]-2-[3-(trifluoromethyl)phenyl]ethyl sulphamate] | 4.3 | 1.8
11 | CN(C(=O)Cn1nc(-c2ccc(Cl)cc2)n(C[C@H](O)C(F)(F)F)c1=O)C(CO)c1cccc(C(F)(F)F)c1 (stereo partly drawn) [Example 163, 2-{3-(4-Chlorophenyl)-5-oxo-4-[(2S)-3,3,3-trifluoro-2-hydroxypropyl]-4,5-dihydro-1H-1,2,4-triazol-1-yl}-N-{2-hydroxy-1-[3-(trifluoromethyl)phenyl]ethyl}-N-methylacetamide] | 594 | 7.7
12 | C=CCn1c(-c2ccc(Cl)cc2)nn(CC(=O)NC(CO)c2cccc(Cl)c2F)c1=O (centres unmarked) [Example 168] | 87 | 76
13 | Cc1csc(-c2nn(CC(=O)NC(CO)c3cccc(Cl)c3F)c(=O)n2CC(C)C)c1Cl (centres unmarked) [Example 172] | 91 | 136
14 | O=C(Cn1nc(-c2ccc(Cl)cc2)n(CC2CCCCC2)c1=O)NC(CO)c1cccc(Cl)c1F (centres unmarked) [Example 182] | 304 | 28
15 | O=C(Cn1nc(-c2ccc(Cl)cc2)n(Cc2ccccc2F)c1=O)NC(CO)c1cccc(F)c1F (centres unmarked) [Example 184] | 72 | 26.6
16 | O=C(Cn1nc(-c2ccc(Cl)s2)n(Cc2ccccc2F)c1=O)NC(CO)c1cccc(F)c1F (centres unmarked) [Example 185] | 55 | 45

Second part, the compound after the results:

Row | IC50 (human V1a receptor) [nM] | IC50 (human V2 receptor) [nM] | Compound
17 | 1.4 | 7.8 | O=C(Cn1nc(-c2ccc(Cl)cc2)n(C[C@H](O)C(F)(F)F)c1=O)NC(CO)c1ccccc1C(F)(F)F (single isomer, unassigned; diastereomer i) [Example 39]
18 | 1 | 8.9 | NCC(NC(=O)Cn1nc(-c2ccc(Cl)cc2)n(C[C@H](O)C(F)(F)F)c1=O)c1ccccc1C(F)(F)F (single isomer, unassigned; diastereomer ii) [Example 14]
19 | 0.9 | 3.2 | CS(=O)(=O)NCC(NC(=O)Cn1nc(-c2ccc(Cl)cc2)n(C[C@H](O)C(F)(F)F)c1=O)c1ccccc1C(F)(F)F (single isomer, unassigned; diastereomer ii) [Example 26]
20 | 5.5 | 2.5 | C[C@@](COC(N)=O)(NC(=O)Cn1nc(-c2ccc(Cl)cc2)n(C[C@H](O)C(F)(F)F)c1=O)c1cccc(C(F)(F)F)c1 [Example 45, (2R)-2-[({3-(4-Chlorophenyl)-5-oxo-4-[(2S)-3,3,3-trifluoro-2-hydroxypropyl]-4,5-dihydro-1H-1,2,4-triazol-1-yl}acetyl)amino]-2-[3-(trifluoromethyl)phenyl]propyl carbamate]
21 | 1.5 | 4.9 | NC(=O)OCC(NC(=O)Cn1nc(-c2ccc(Cl)cc2)n(C[C@H](O)C(F)(F)F)c1=O)c1ccccc1Cl (stereo partly drawn) [Example 53, 2-(2-Chlorophenyl)-2-[({3-(4-chlorophenyl)-5-oxo-4-[(2S)-3,3,3-trifluoro-2-hydroxypropyl]-4,5-dihydro-1H-1,2,4-triazol-1-yl}acetyl)amino]ethyl carbamate]
22 | 1.6 | 9.7 | O=C(Cn1nc(-c2ccc(Cl)cc2)n(C[C@H](O)C(F)(F)F)c1=O)N[C@@H](CCO)c1ccccc1C(F)(F)F [Example 69, 2-{3-(4-Chlorophenyl)-5-oxo-4-[(2S)-3,3,3-trifluoro-2-hydroxypropyl]-4,5-dihydro-1H-1,2,4-triazol-1-yl}-N-{(1S)-3-hydroxy-1-[2-(trifluoromethyl)phenyl]propyl}acetamide]
23 | 1.6 | 9.9 | NC(=O)OCC[C@H](NC(=O)Cn1nc(-c2ccc(Cl)cc2)n(C[C@H](O)C(F)(F)F)c1=O)c1ccccc1C(F)(F)F [Example 70, (3S)-3-[({3-(4-Chlorophenyl)-5-oxo-4-[(2S)-3,3,3-trifluoro-2-hydroxypropyl]-4,5-dihydro-1H-1,2,4-triazol-1-yl}acetyl)amino]-3-[2-(trifluoromethyl)phenyl]propyl carbamate]
24 | 88.6 | 231 | O=C(Cn1nc(-c2ccc(Cl)cc2)n(C[C@H](O)C(F)(F)F)c1=O)NC(CC(F)(F)F)c1ccccc1 (stereo partly drawn) [Example 90, 2-{3-(4-Chlorophenyl)-5-oxo-4-[(2S)-3,3,3-trifluoro-2-hydroxypropyl]-4,5-dihydro-1H-1,2,4-triazol-1-yl}-N-(3,3,3-trifluoro-1-phenylpropyl)acetamide]
25 | 8.2 | 9.9 | COc1ccccc1C(CCOC(N)=O)NC(=O)Cn1nc(-c2ccc(Cl)cc2)n(C[C@H](O)C(F)(F)F)c1=O (stereo partly drawn) [Example 188, 3-[({3-(4-Chlorophenyl)-5-oxo-4-[(2S)-3,3,3-trifluoro-2-hydroxypropyl]-4,5-dihydro-1H-1,2,4-triazol-1-yl}acetyl)amino]-3-(2-methoxyphenyl)propyl carbamate]
